{"source": "patent US20160160267A1", "about": "“COMPOSITION FOR EVALUATING OR PREDICTING PATIENTS THERAPEUTIC RESPONSE TO METHORMIN” (SNU R&DB FOUNDATION, priority 2013, published 2016)", "key": {"[1]": {"test_system": "MCP-1 (Monocyte chemoattractant protein-1)", "test": "Expression of MCP-1 in epididymal adipose tissue, quantitative PCR relative to GAPDH", "type": "in vivo, mouse (C57BL/6)", "settings": "male, metformin during high-fat diet, P=0.008", "experimental": "(§1) FIG. 4a to FIG. 5b comparatively analyze the amount of gene expression of internal control GAPDH and biomarkers using relative quantification method (2^−ΔΔCt(ΔΔCt=(Ct.Target−Ct.GAPDH)Group1−(Ct.Target−Ct.GAPDH)Group2)). Statistical significance is assessed by Mann-Whitney U Test. For quantification, SYBR qPCR was repeatedly conduced three times.\n(§2) Basically, body weight and fasting glucose were confirmed once a week. To confirm impaired glucose tolerance, oral glucose tolerance test (OGTT) was conducted. And, total cholesterol, high-density lipoprotein (HDL), low-density lipoprotein (LDL) were analyzed in serum, and insulin concentration in blood was measured using flow cytometry. To grasp the expression degree of metabolic and inflammatory factors, liver, epididymal adipose tissue, small intestine were homogenized to extract total RNA, which was quantitatively analyzed by polymerase chain reaction (PCR). In the liver, AMPKα1 (AMP-activated protein kinase alpha 1), PPARα (Peroxisome proliferator-activated eceptor alpha), GLUT2 (Glucose transporter 2), G6Pase (Glucose 6-phosphatase) were measured; in the adipose tissue, adiponectin, leptin, MCP-1 (Monocyte chemoattractant protein-1), TNFα (Tumor necrosis factor alpha) IL-6 (Interleukin-6) were measured; and in the small intestine, MUC2 and MUC5 (Mucin genes) were measured. […]"}, "[2]": {"test_system": "PPARα", "test": "Expression of PPARα in liver, quantitative PCR relative to GAPDH", "type": "in vivo, mouse (C57BL/6)", "settings": "female, metformin during high-fat diet, P=0.008", "experimental": "as §1, §2"}, "[3]": {"test_system": "MUC5", "test": "Expression of mucin gene MUC5 in small intestine", "type": "in vivo, mouse (C57BL/6)", "settings": "female, after administration of metformin", "experimental": "as §1, §2"}, "[4]": {"test": "Tissue inspection (tissue weights, H&E staining, steatosis)", "settings": "metformin during high-fat diet, compared to high-fat diet group", "from_the_text": "Male and female C57BL/6 species of the same age of the week were purchased from Orientbio. […] Epididymis adipose tissue, liver, small intestine, pancreas, and blood were extracted, and among them, liver, small intestine, and pancreas were fixed to 4% paraformaldehyde to conduct hematoxylin and eosin (H&E) staining. Briefly, tissue was cut to 4 μm, stained with alum haematoxylin and rinsed with water flow. Thereafter, the colour was changed with 0.3% acid alcohol, followed by additional staining with eosin, dehydrating and fixing. The degree of steatosis and inflammation of the tissue was read by pathologist."}, "[5]": {"test_system": "AMPKα1 (AMP-activated protein kinase alpha 1)", "test": "Expression of AMPKα1 in liver, quantitative PCR relative to GAPDH", "type": "in vivo, mouse (C57BL/6)", "settings": "female, metformin during high-fat diet, P=0.023", "experimental": "as §1, §2"}, "[6]": {"test": "Metabolism-related index (body weight, fasting glucose, serum total cholesterol, HDL) in high-fat diet mouse", "type": "in vivo, mouse (C57BL/6)", "settings": "high-fat diet mice", "experimental": "Basically, body weight and fasting glucose were confirmed once a week. To confirm impaired glucose tolerance, oral glucose tolerance test (OGTT) was conducted. And, total cholesterol, high-density lipoprotein (HDL), low-density lipoprotein (LDL) were analyzed in serum, and insulin concentration in blood was measured using flow cytometry. To grasp the expression degree of metabolic and inflammatory factors, liver, epididymal adipose tissue, small intestine were homogenized to extract total RNA, which was quantitatively analyzed by polymerase chain reaction (PCR). In the liver, AMPKα1 (AMP-activated protein kinase alpha 1), PPARα (Peroxisome proliferator-activated eceptor alpha), GLUT2 (Glucose transporter 2), G6Pase (Glucose 6-phosphatase) were measured; in the adipose tissue, adiponectin, leptin, MCP-1 (Monocyte chemoattractant protein-1), TNFα (Tumor necrosis factor alpha) IL-6 (Interleukin-6) were measured; and in the small intestine, MUC2 and MUC5 (Mucin genes) were measured. For comparative analysis of the expression degree, relative quantification using housekeeping gene GAPDH was applied, and statistical significance was confirmed with Mann-Whitney U test. As the primer for MUC5AC, QuantiTect® Primer Assay (Cat. no.: QT01161104, Qiagen) was used."}, "[7]": {"test_system": "GLUT2 (Glucose transporter 2)", "test": "Expression of GLUT2 in liver, quantitative PCR relative to GAPDH", "type": "in vivo, mouse (C57BL/6)", "settings": "female, metformin during high-fat diet, P=0.007", "experimental": "as §1, §2"}, "[8]": {"test_system": "MUC2", "test": "Expression of mucin gene MUC2 in small intestine", "type": "in vivo, mouse (C57BL/6)", "settings": "female, after administration of metformin", "experimental": "as §1, §2"}, "[9]": {"test_system": "rumen microorganism communities", "test": "Analysis of rumen microbiome in feces samples (16S rRNA V2-V3 pyrosequencing, UniFrac, PCoA, LEfSe)", "type": "in vivo, mouse (C57BL/6)", "experimental": "Total genome DNA of bacteria in the feces sample was extracted using a kit. The V2 region and the V3 region of 16S rRNA gene were amplified through PCR using bar coded universal primer as described in Table 3 and Table 4, and pyrosequencing was conducted using GS-FLX system. For the secured nucleotide sequence, data was analyzed using QIIME (Quantitative Insights Into Microbial Ecology) 1.5.0 (http://qiime.sourceforge.net). Before the sequence analysis, noise removal of the sequence data set was conducted, and low quality sequence less than 200 bp was removed. To the nucleotide sequence, OUT (Operational taxonomic units) was assigned based on 97% analogous level to conduct system analysis. For the nucleotide sequence obtained from each feces sample, UniFrac, PCoA (Principal Coordinate Analysis), LEfSe (LDA Effect Size) analysis were conducted for comparative analysis. And, based on the KEGG (Kyoto Encyclopedia of Genes and Genomes) pathway data from microbiome, PICRUSt (Phylogenetic Investigation of Communities by Reconstruction of Unobserved States) was conducted to predict a specifically increasing metabolic pathway."}, "[10]": {"test_system": "G6Pase (Glucose 6-phosphatase)", "test": "Expression of G6Pase in liver, quantitative PCR relative to GAPDH", "type": "in vivo, mouse (C57BL/6)", "settings": "male, metformin during high-fat diet", "experimental": "as §1, §2"}, "[11]": {"test_system": "TNFα (Tumor necrosis factor alpha)", "test": "Expression of TNFα in epididymal adipose tissue, quantitative PCR relative to GAPDH", "type": "in vivo, mouse (C57BL/6)", "settings": "female, metformin during high-fat diet, P=0.001", "experimental": "as §1, §2"}, "[12]": {"test_system": "leptin", "test": "Expression of leptin in epididymal adipose tissue, quantitative PCR relative to GAPDH", "type": "in vivo, mouse (C57BL/6)", "settings": "male, metformin during high-fat diet, P=0.004", "experimental": "as §1, §2"}, "[13]": {"settings": "10 weeks after metformin administration"}, "[14]": {"settings": "after administration of metformin (300 mg/kg daily, oral)"}, "[15]": {"settings": "after administration of metformin during high-fat diet"}}, "data": [{"smiles": "CN(C)C(=N)NC(=N)N", "note": "[metformin, N,N-Dimethylimidodicarbonimidic diamide]", "values": [{"measurement": "MCP-1 expression in epididymal adipose tissue", "setting": "[1]", "result": "increased"}, {"measurement": "PPARα expression in liver", "setting": "[2]", "result": "increased"}, {"measurement": "expression degree of MUC5 in small intestine", "setting": "[3]", "result": "significantly increased"}, {"measurement": "liver steatosis", "setting": "[4]", "result": "significant difference"}, {"measurement": "weight of adipose tissue", "setting": "[4]", "result": "significantly decreased"}, {"measurement": "weight of liver", "setting": "[4]", "result": "significantly decreased"}, {"measurement": "AMPKα expression in liver", "setting": "[5]", "result": "decreased"}, {"measurement": "high density lipoprotein (HDL)", "setting": "[6]; [13]", "result": "significantly decreased"}, {"measurement": "total cholesterol", "setting": "[6]; [13]", "result": "significantly decreased"}, {"measurement": "blood glucose (fasting glucose)", "setting": "[6]; [14]", "result": "significantly decrease"}, {"measurement": "body weight", "setting": "[6]; [14]", "result": "significantly decrease"}, {"measurement": "GLUT2 expression in liver", "setting": "[7]", "result": "decreased"}, {"measurement": "expression degree of MUC2 in small intestine", "setting": "[8]", "result": "significantly increased"}, {"measurement": "proportion of phylum Proteobacteria", "setting": "[9]; [15]", "result": "2.1±2.8", "unit": "%"}, {"measurement": "proportion of phylum Verrucomicrobia", "setting": "[9]; [15]", "result": "12.4±5.3", "unit": "%"}, {"measurement": "proportion of phylum Bacteroidetes", "setting": "[9]; high-fat diet, after administration of metformin", "result": "77.5±8.7", "unit": "%"}, {"measurement": "microbial diversity in feces", "setting": "[9]; metformin administration during high-fat diet", "result": "decreased"}, {"measurement": "microbial diversity in feces", "setting": "[9]; metformin administration during normal diet", "result": "did not cause any change in diversity"}, {"measurement": "Akkermansia abundance, at species level", "setting": "[9]; metformin during high-fat diet", "result": "significantly increased"}, {"measurement": "Bacteroides abundance, at species level", "setting": "[9]; metformin during high-fat diet", "result": "significantly increased"}, {"measurement": "relative bacterial abundance by LDA scores, genus Akkermansia", "setting": "[9]; metformin during high-fat diet", "result": "increased"}, {"measurement": "relative bacterial abundance by LDA scores, genus Blautia", "setting": "[9]; metformin during high-fat diet", "result": "increased"}, {"measurement": "relative bacterial abundance by LDA scores, genus Clostridium", "setting": "[9]; metformin during high-fat diet", "result": "decreased"}, {"measurement": "relative bacterial abundance by LDA scores, genus Shigella", "setting": "[9]; metformin during high-fat diet", "result": "increased"}, {"measurement": "UniFrac distance to the group treated with high-fat diet only", "setting": "[9]; metformin during high-fat diet, versus difference of the diet-change group (HFD-ND) to HFD only", "result": "larger"}, {"measurement": "relative bacterial abundance, Alistipes", "setting": "[9]; metformin during normal diet", "result": "increased"}, {"measurement": "relative bacterial abundance, Lactobacillus iners", "setting": "[9]; metformin during normal diet", "result": "relatively decreased"}, {"measurement": "relative bacterial abundance, genus Akkermansia", "setting": "[9]; metformin during normal diet", "result": "significantly increased"}, {"measurement": "relative bacterial abundance, genus Clostridium", "setting": "[9]; metformin during normal diet", "result": "significantly increased"}, {"measurement": "G6Pase expression in liver", "setting": "[10]", "result": "significantly decreased"}, {"measurement": "TNFα expression in epididymal adipose tissue", "setting": "[11]", "result": "significantly decreased"}, {"measurement": "leptin expression in epididymal adipose tissue", "setting": "[12]", "result": "increased"}]}]}
